Our source for the melting point values is US7265120B2, “Pyrazine derivatives and pharmaceutical use thereof” (Astellas Pharma Inc., priority 2004, dated 2007).

As a reminder, the melting point is the temperature, or range, at which the solid turns liquid. In turn, `CC(C)n1nc(-c2nc(OC3CCCCC3)c(N)nc2-c2ccccc2)ccc1=O` [Example 161, 6-[5-amino-6-(cyclohexyloxy)-3-phenyl-2-pyrazinyl]-2-isopropyl-3(2H)-pyridazinone] yielded a melting point of 161 to 163 °C.

Regarding `CC(C)n1nc(-c2nc(OCc3ccccc3)c(N)nc2-c2ccccc2)ccc1=O` [Example 162, 6-[5-amino-6-(benzyloxy)-3-phenyl-2-pyrazinyl]-2-isopropyl-3(2H)-pyridazinone], the melting point lay within 118 to 120 °C.

Consider `CC(C)n1nc(-c2nc(OCc3ccco3)c(N)nc2-c2ccccc2)ccc1=O` [Example 164, 6-[5-amino-6-(2-furylmethoxy)-3-phenyl-2-pyrazinyl]-2-isopropyl-3(2H)-pyridazinone], for which the melting point lay within 172 to 174 °C. Compound `CCCCOc1nc(-c2ccc(=O)n(C(C)C)n2)c(-c2ccccc2)nc1N` [Example 165, 6-(5-amino-6-butoxy-3-phenyl-2-pyrazinyl)-2-isopropyl-3(2H)-pyridazinone] displayed a melting point of 130 to 131.5 °C. Next, `COCCOc1nc(-c2ccc(=O)n(C(C)C)n2)c(-c2ccccc2)nc1N` [Example 166, 6-[5-amino-6-(2-methoxyethoxy)-3-phenyl-2-pyrazinyl]-2-isopropyl-3(2H)-pyridazinone]: 128 to 130 °C; `CC(C)n1nc(-c2nc(OCCOC(C)(C)C)c(N)nc2-c2ccccc2)ccc1=O` [Example 167, 6-[5-amino-6-(2-tert-butoxyethoxy)-3-phenyl-2-pyrazinyl]-2-isopropyl-3(2H)-pyridazinone]: 163 to 165 °C.

As for `CC(C)n1nc(-c2nc(OCCOCc3ccccc3)c(N)nc2-c2ccccc2)ccc1=O` [Example 168, 6-{5-amino-6-[2-(benzyloxy)ethoxy]-3-phenyl-2-pyrazinyl}-2-isopropyl-3(2H)-pyridazinone], the melting point lay within 120 to 122 °C. Compound `CC(C)n1nc(-c2nc(OCCCCOCc3ccccc3)c(N)nc2-c2ccccc2)ccc1=O` [Example 169, 6-{5-amino-6-[4-(benzyloxy)butoxy]-3-phenyl-2-pyrazinyl}-2-isopropyl-3(2H)-pyridazinone] gave a melting point of 96.5 to 97.5 °C. Under `CC(C)n1nc(-c2nc(OCCN(C)C)c(N)nc2-c2ccccc2)ccc1=O` [Example 170, 6-{5-amino-6-[2-(dimethylamino)ethoxy]-3-phenyl-2-pyrazinyl}-2-isopropyl-3(2H)-pyridazinone] stands 136 to 137.5 °C.

Turning to `CC(C)n1nc(-c2nc(OCC(F)(F)F)c(N)nc2-c2ccccc2)ccc1=O` [Example 171, 6-[5-amino-3-phenyl-6-(2,2,2-trifluoroethoxy)-2-pyrazinyl]-2-isopropyl-3(2H)-pyridazinone], the melting point was in the range of 233 to 235 °C. Next, `CC(C)n1nc(-c2nc(OCCN3CCOCC3)c(N)nc2-c2ccccc2)ccc1=O` [Example 172, 6-{5-amino-6-[2-(4-morpholinyl)ethoxy]-3-phenyl-2-pyrazinyl}-2-isopropyl-3(2H)-pyridazinone]: 139 to 143 °C. On to `CC(C)n1nc(-c2[nH]c(=O)c(N)nc2-c2ccccc2)ccc1=O` [Example 174, 6-(5-amino-6-oxo-3-phenyl-1,6-dihydro-2-pyrazinyl)-2-isopropyl-3(2H)-pyridazinone], for which the melting point is greater than 250 °C. Regarding `CC(C)n1nc(-c2nc(OCCc3ccccc3)c(N)nc2-c2ccccc2)ccc1=O` [Example 174, 6-[5-amino-3-phenyl-6-(2-phenylethoxy)-2-pyrazinyl]-2-isopropyl-3(2H)-pyridazinone], the melting point is 173 to 176 °C. In turn, `CC(C)n1nc(-c2nc(OCCCc3ccccc3)c(N)nc2-c2ccccc2)ccc1=O` [Example 175, 6-[5-amino-3-phenyl-6-(3-phenylpropoxy)-2-pyrazinyl]-2-isopropyl-3(2H)-pyridazinone] yielded a melting point of 105 to 106.5 °C.
